As a reminder, the EC50 is the concentration that produces a half-maximal response. Higher therefore signals lower potency in that assay.

A value given as a limit tells only on which side of the number the result lay.

Data set [1] concerns the target hTGR5 (Homo sapiens (Human), UniProt Q8TDU6). Description: HTR-FRET intracellular cAMP assay in NCI-H716 cells. To be noted: Table 1; Ref LCA. Type of data set: cell-based. For orientation: Cyclic AMP is a second messenger, typically raised through Gs and lowered through Gi signalling.
Data set [2] is described as follows: 1-octanol-water partition coefficient of ionized species. Type of data set: physicochemical. The method, then: (§1) Physiochemical properties of a compound of the invention such as water solubility, critical micellar concentration, surface tension, and LogPA were determined using methods known in the art.
The nature of data set [3]: Critical micellar concentration. Type of data set: physicochemical. The note with it: determined in […] NaCl water solution. The procedure: as §1

Chain of hTGR5 (Q8TDU6 whole entry): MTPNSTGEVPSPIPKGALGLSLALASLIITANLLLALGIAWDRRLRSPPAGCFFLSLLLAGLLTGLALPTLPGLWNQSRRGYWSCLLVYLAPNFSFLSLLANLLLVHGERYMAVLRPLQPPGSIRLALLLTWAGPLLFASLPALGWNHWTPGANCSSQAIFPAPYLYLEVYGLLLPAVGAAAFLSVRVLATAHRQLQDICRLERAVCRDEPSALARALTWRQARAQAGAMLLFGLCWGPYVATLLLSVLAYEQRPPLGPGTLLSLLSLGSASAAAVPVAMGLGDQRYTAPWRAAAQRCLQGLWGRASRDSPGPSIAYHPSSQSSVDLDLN

For the compound “6α-ethyl-3α,7α,23-trihydroxy-24-nor-5β-cholan-23-sulphate sodium salt [Compound B, reference compound]”, in data set [1], a half-maximal effect (EC50) was put at 0.63 µM.

Take `CC[C@H]1[C@@H](O)C2C3CCC(C(C)CC(C)C(=O)O)[C@@]3(C)[C@@H](O)CC2[C@@]2(C)CC[C@@H](O)C[C@@H]12` (stereo in doubt) [Compound C, 6α-ethyl-23(S)-methyl-3α,7α,12α trihydroxy-5β-cholan-24-oic acid, reference compound]: the “LogPA−: 1-octanol-water partition coefficient as ionized species” value (shortened to “LogPA− … as ionized species”) in data set [2] is 1.4. In data set [3], the “CMC: Critical Micellar Concentration” value is reported as 2 mM. For the compound `CC[C@H]1[C@@H](O)C2C3CC[C@H]([C@H](C)CC(=O)O)[C@@]3(C)C[C@H](O)C2[C@@]2(C)CC[C@@H](O)C[C@@H]12` (stereo partly drawn) [Compound 1, 3α,7α,11β-trihydroxy-6α-ethyl-24-nor-5β-cholan-23-oic acid], the EC50 in data set [1] is greater than 100 µM.

Regarding `CC[C@H]1[C@@H](O)C2C3CC[C@H]([C@H](C)CCO)[C@@]3(C)C[C@H](O)C2[C@@]2(C)CC[C@@H](O)C[C@@H]12` (stereo partly drawn) [Compound 2, 3α,7α,11β-trihydroxy-6α-ethyl-24-nor-5β-cholan-23-ol], the EC50 in data set [1] was determined as 93 µM. In data set [1], `CC[C@H]1[C@@H](O)[C@@H]2[C@H]([C@@H](O)C[C@]3(C)[C@@H]([C@H](C)CCCO)CC[C@@H]23)[C@@]2(C)CC[C@@H](O)C[C@@H]12` [Compound 4, 3α,7α,11β-trihydroxy-6α-ethyl-5β-cholan-24-ol] displayed an EC50 of 13.7 ± 2.3 µM.

On to `CC[C@H]1[C@@H](O)[C@@H]2[C@H](CC[C@]3(C)[C@@H]([C@H](C)CCC(=O)O)CC[C@@H]23)[C@@]2(C)CC[C@@H](O)C[C@@H]12` [Compound A, 6α-ethyl-3α,7α-dihydroxy-5β-cholan-24-oic acid, reference compound], for which, in data set [2], the “LogPA− … as ionized species” value stood at 2.5. Moreover, the “CMC: Critical Micellar Concentration” value in data set [3] is on record as 2.9 mM. Regarding `CC[C@H]1[C@@H](O)C2C3CC[C@H]([C@H](C)C[C@H](C)C(=O)O)[C@@]3(C)CCC2[C@@]2(C)CC[C@@H](O)C[C@@H]12` (stereo partly drawn) [Compound D, 6α-ethyl-23(R)-methyl chenodeoxycholic acid], the “LogPA− … as ionized species” value in data set [2] worked out at 2.9. As to `CC[C@H]1[C@@H](O)C2C3C[C@H](O)[C@H]([C@H](C)CCC(=O)O)[C@@]3(C)CCC2[C@@]2(C)CC[C@@H](O)C[C@@H]12` (some centres unmarked) [Compound E, reference compound], the “LogPA− … as ionized species” value in data set [2] turned out to be 1.6. Further, in data set [3], the “CMC: Critical Micellar Concentration” value is reported as 5.9 mM.

These data come from US11034717B2, “Farnesoid X receptor modulators” (Intercept Pharmaceuticals, Inc., priority 2015, dated 2021).
